A word on the EC50: it is the concentration at which the effect is half-maximal.

The experiment in a line: Positive modulation of GluR1.
`CN(C)Cc1cn(CC(=O)Nc2sc3c(c2C(N)=O)CCCC3)nc1C(F)(F)F` had an EC50 of 0.501 µM.

`NC(=O)c1c(NC(=O)Cn2cc(CNC3CC3)c(C(F)(F)F)n2)sc2c1CCCC2` came in with an EC50 of 0.631 µM.

For `NC(=O)c1c(NC(=O)Cn2nc(C(F)(F)F)c3c2CCNC3)sc2c1CCCC2`, the EC50 was found to be 1 µM.

The molecule `CC(C)NCc1cn(CC(=O)Nc2sc3c(c2C(N)=O)CCCC3)nc1C(F)(F)F` displayed an EC50 of 3.16 µM.

As for `CCN(CC)Cc1cn(CCC(=O)Nc2sc3c(c2C(N)=O)CCCC3)nc1C(F)(F)F`, the EC50 came out at 2 µM.

Molecule `CCNCc1cn(CC(=O)Nc2sc3c(c2C(N)=O)CCCC3)nc1C(F)(F)F` gave an EC50 of 0.794 µM.

`CC(C)(C)c1nn(CC(=O)Nc2sc3c(c2C(N)=O)CCCC3)cc1CNC1CC1` had an EC50 of 1.58 µM.

For `CC(C)NCc1cn(CC(=O)Nc2sc3c(c2C(N)=O)CCCC3)nc1C(C)(C)C`, the midpoint of the response, the EC50, lay at 1.58 µM.

`CCN(CC)Cc1cn(CC(=O)Nc2sc3c(c2C(N)=O)CCCC3)nc1C(F)(F)F` returned an EC50 of 0.631 µM.

In turn, `O=C(Cn1nc(C(F)(F)F)c2c1CCCC2)Nc1sc2c(c1CO)CCCC2` showed an EC50 of 0.251 µM.

Take `CN(C)Cc1cn(CC(=O)Nc2sc3c(c2C(N)=O)CCCC3)nc1C(C)(C)C`: a half-maximal response (EC50) required 0.316 µM. This EC50 and that of the molecule before are within 1.5-fold of each other.

With `NCc1cn(CC(=O)Nc2sc3c(c2C(N)=O)CCCC3)nc1C(F)(F)F`, the EC50 came to 0.794 µM.

In the case of `CNCc1cn(CC(=O)Nc2sc3c(c2C(=O)NC)CCCC3)nc1C(F)(F)F`, the half-maximal effective concentration (EC50) turned out to be 1.58 µM.

In turn, `COCCNCc1cn(CC(=O)Nc2sc3c(c2C(N)=O)CCCC3)nc1C(F)(F)F` returned an EC50 of 1.58 µM. This lies in the single-digit micromolar range.

As to `CCNCc1cn(CC(=O)Nc2sc3c(c2C(N)=O)CCCC3)nc1C(C)(C)C`, the concentration giving a half-maximal response (EC50) is 0.794 µM.

The molecule `NC(=O)c1c(NC(=O)Cn2cc(CN3CCC3)c(C(F)(F)F)n2)sc2c1CCCC2` returned an EC50 of 1 µM.

Turning to `CNCc1cn(CC(=O)Nc2sc3c(c2C(N)=O)CCCC3)nc1C(C)(C)C`, the EC50 turned out to be 0.316 µM.

`CNCc1cn(CCC(=O)Nc2sc3c(c2C(N)=O)CCCC3)nc1C(F)(F)F` had a concentration for a half-maximal effect (EC50) of 1.58 µM.

In turn, `O=C(Cn1nc(C(F)(F)F)c2c1CCCC2)Nc1sc2c(c1C(=O)N[C@@H]1CCNC1)CCCC2` had an EC50 of 0.251 µM. This EC50 lies about 6.3-fold lower than the previous one.

In turn, `CCNCc1cn(CCC(=O)Nc2sc3c(c2C(N)=O)CCCC3)nc1C(F)(F)F` gave an EC50 of 2.51 µM.

`CNCc1cn(CC(=O)Nc2sc3c(c2C(N)=O)CCCC3)nc1C(F)(F)F`: the midpoint of the response, the EC50, lay at 0.126 µM.
